36 compounds from a melting point compilation (Tetko et al.; mined from patent text by program, amines drawn as free bases though some values may be those of a salt) can be followed below.

Structures are written as SMILES. Where only a bound is given, the exact number is not on record here.

As for `CC(=O)Oc1ccc(CCc2ccc(NC(=O)C3=C(O)c4ccccc4SC3)cc2)cc1OC(C)=O`, the melting point (commonly the temperature of the solid-liquid transition) was in the range of 214 to 215 °C.

In turn, `Cc1cc(SCc2sc(-c3ccc(C(F)(F)F)cc3)nc2C)ccc1OCC(=O)O` came in with a melting point of 139 to 141 °C.

`Nc1ncc2cc(-c3ccncc3)c(N)nc2n1`: the melting point was over 340 °C.

In turn, `CCN1CCC2(CC1)COc1cc3c(cc12)N(C(=O)c1ccc(-c2ccc(-c4noc(C)n4)cc2C)cc1)CC3` displayed a melting point of 202 to 204 °C.

`COC(=O)[C@H](Cc1cc(C)c(OCc2cccc3nc(-c4ccccc4)oc23)c(C)c1)NC(=O)OC(C)(C)C` had a melting point of 116 to 117 °C.

On to `N#Cc1c(-c2cccc(N)c2)cc(-c2ccccc2O)nc1NC(=O)c1ccsc1`, for which the melting point lay within 257 to 260 °C.

Turning to `COC(=O)Cc1c(C(=O)OC)oc2ccccc2c1=O`, the melting point came to 105 °C.

Regarding `CN(CCOc1ccc(CC(C(=O)O)S(=O)(=O)c2ccccc2)cc1)c1nc2ccccc2o1` (stereo unspecified), the melting point lay in the range of 193 to 196 °C.

`NS(=O)(=O)c1ccc(-n2nc(CCCNC(=O)Nc3ccccc3)cc2-c2ccccc2)cc1`: the melting point is 171 to 172 °C.

With `C=Cc1nn(Cc2ccc(C(=O)OC)cc2OC)c2cc(C(=O)NCC3CCCC3)ccc12`, the melting point was in the range of 138 to 140 °C.

In turn, `CN(C)C(=O)COC[C@@H]1CC(c2ccc(-c3ccc(N4C[C@H](Cn5ccnn5)OC4=O)cc3F)cn2)=NO1` came in with a melting point of 166 to 168 °C.

`CC1(c2c[nH]cn2)CCc2ccccc21` (stereo unspecified) returned a melting point of 164 to 171 °C.

Turning to `COc1ccc(C2(O)CCSCC2)cc1OC1CCCC1`, the melting point is 83 to 85 °C.

Compound `c1ccc([C@H]2OC2(c2ccccc2)c2ccccc2)cc1` yielded a melting point of 91 to 92 °C.

As for `Cc1cc(C)c2c(c1O)C(NCc1cc(C(C)(C)C)c(O)c(C(C)(C)C)c1)CC2` (stereo unspecified), the melting point was 154 to 155 °C.

As to `CCOc1ccccc1O[C@@H]1CN(CC)C[C@H]1O` (relative stereo), the melting point was in the range of 73 to 75 °C.

In turn, `CCCN(CCC)CC(=O)OC1CC2(C)C(C(C)=O)CCC2C2CCC3CC(O)CCC3(C)C12` (stereo unspecified) returned a melting point of 116 to 118 °C.

With `FC(F)(F)c1nnc2c(Cl)nc3ccc(Cl)cc3n12`, the melting point fell in the range of 133 to 135 °C.

On to `ON=CCc1ccccc1`, for which the melting point lay in the range of 90 to 94 °C.

The compound `CCOC(=O)Cn1c(=S)c2cc(C)ccc2n(Cc2ccc(Cl)c(Cl)c2)c1=O` had a melting point of 176 to 177 °C.

`CN(CC(=O)O)C(=O)CCSC(=O)c1ccccc1` yielded a melting point of 139 to 140 °C.

As for `Cc1cc2c(c([N+](=O)[O-])c1)N(c1ccccc1C#N)CC2`, the melting point lay in the range of 138 to 139 °C.

In turn, `O=C(O)c1ccc(OCCCc2ccccc2)cc1` displayed a melting point of 165 to 166 °C.

In the case of `COC(=O)c1cc(O)cc(Cl)c1`, the melting point was in the range of 133 to 135 °C.

Compound `CSc1cccc2nc3sccn3c(=O)c12` displayed a melting point of 186 to 189 °C.

The compound `O=C(Nc1ccc2ccc(Cl)nc2n1)C1=CSCCS1` yielded a melting point of 237 °C.

The compound `NN(Cc1ccc(Cl)cc1)c1ccc(OCc2ccc3ccccc3n2)cc1` yielded a melting point of 130 °C.

The compound `COc1ncc(Br)cc1C(O)C=Cc1ccc(Cl)c(Cl)c1` (stereo unspecified) registered a melting point of 149 to 150 °C.

Compound `CC12CCC3C(CC=C4CCCCC43C)C1CC(O)C2=O` (stereo unspecified) had a melting point of 168 to 172 °C.

`COc1ccc(CCNC(=O)C(F)(F)F)c2c1NC(=O)C2` returned a melting point of 175 to 178 °C.

Turning to `Cc1ccc2c(c1)c1c(n2Cc2ccc(F)cc2)CCCC1=O`, the melting point is 210 °C.

Consider `Cc1[nH]c2ccccc2c1CCC(=O)N1CCC(O)(Cc2ccccc2)CC1`, for which the melting point is 117 to 119 °C.

Compound `C=C(C(=O)OC1CC2CCC(C1)N2C(C)=O)c1ccccc1` (stereo unspecified) yielded a melting point of 104 to 107 °C.

In turn, `CCc1cn(C2CC(O)C(CCCCc3ccccc3)O2)c(=O)[nH]c1=O` (stereo unspecified) returned a melting point of 160 to 162 °C.

The compound `COc1cc(C#N)cc(Br)c1O` yielded a melting point of 144 to 145 °C.

`CS(=O)(=O)CC(=O)Nc1ccccc1` displayed a melting point of 140 to 141 °C.
